Earlier results as cited in patent US6562243B2 (priority 2001, dated 2003).

Test system: Legionella

[Ag] [silver]
silver level that kills Legionella: 20 ppb
